In patent publication US10444228B2, “Method of screening a candidate compound for inducing bile canalicular function disorders” (Biopredic International, priority 2014, dated 2019):

Legend:
Type in all cases: cell-based, human
ZO-1 = test: Immunolocalization of junctional protein ZO-1; conditions: treated HepaRG cultures
[1] = test system: differentiated HepaRG cells (bile canalicular lumen); test: Bile canaliculi lumen morphology by F-actin (phalloidin) / CDFDA imaging; conditions: for induction of cholestasis (phenotype with swollen lumen) / change of biliary lumen (constriction or swelling): Example 2; for induction of cholestasis (phenotype with swollen lumen): HepaRG cells; for change of biliary lumen (constriction or swelling) / change of bile canaliculus lumen (constriction or swelling): differentiated HepaRG cells; for change of biliary lumen (constriction or swelling): F-actin phalloidin and CDFDA staining; for change of bile canaliculus lumen (constriction or swelling): Example 1, 2 h exposure, F-actin phalloidin staining
Protocol: Two week DMSO-treated HepaRG cultures were exposed to 50 μM CPZ for 2 h and analyzed at different times during exposure. Constriction was evidenced by F-actin staining using phalloidin.
Comparison of the cytoskeleton organization of control cells versus CPZ and Y27632 treated cultures for 2 h. Fibers of F-actin accumulated at the biliary were labelling by phalloidin and counterstaining of nuclei was performed by Hoechst staining.
ii)—Analysis of the F-actin organization and biliary lumen changes using phalloidin and fluorescent CDFDA staining. After exposure to the candidate compounds, cells were washed twice, fixed with Paraformaldehyde (4%) fixative for 20 min, washed and stained with phalloidin for 10 min. For CDFDA staining, details are provided below.
Images obtained on microscope were used for calculating the size of the biliary lumen after treatment. Appropriate algorithm has been developed for quantification using Cellomics equipment.

HepaRG cells = test: Accumulation of labelled taurocholate in cells including canaliculi space; conditions: increased concentrations, compared to control
Excerpt: The data also provides information related to junctional complex organization and the role of metalloproteinases in controlling permeability.

Rho-kinase = Rho-kinase activity (Merck-Millipore kit) in treated cell lysates; conditions: differentiated HepaRG cells, 2 h, 1-50 μM
Protocol: Differentiated HepaRG cells were exposed to increased doses of CPZ (from 1-50 μM) for 2 h and Rho-kinase activity was measured (kit Merck-Millipore) according to manufacturer. Untreated cells and cells exposed to the Rho-kinase inhibitor Y27632 (10 μM) were used for controls.

[2] = test system: phosphorylated myosin light chain (P-MYL9); test: Western blotting of phosphorylated myosin light chain; conditions: for P-myosin (P-MYL9) level by western blotting: Example 2, after 1 hour
Protocol: Accumulation of phosphorylated light chain myosin was evidenced by western blotting technique in using the (P)-MYl2 antibody. Control cells, 2h-CPZ treated cells and 2h-y27632-treated cells were compared. Cell lysates were prepared.
Accumulation of the phosphorylated myosin light chain was performed by western blotting using p-Myl antibody.

[3] = test system: differentiated HepaRG cells (canalicular clearance); test: Biliary clearance with Rhodamin 123 marker compound
Protocol: Another assay was performed with Rhodamin 123 as marker compound.

[4] = test system: HepaRG cells (canalicular efflux); test: Efflux of [3H]-taurocholate
Protocol: Efflux of Taurocholate (TA). Cells were first exposed to [3H]-TA for 30 min, then washed with PBS and incubated with or without CPZ at different time points (from 0 to 6 hours) in a standard buffer with Ca2+ and Mg2+. After the incubation time, cells were washed with PBS and incubated for 5 min with a Ca2+ and Mg2+− free buffer in order to disrupt the canalicular tight junctions. Then they were scraped in 0.1 N NaOH; the remaining radiolabeled substrate was measured through scintillation counting to determinate TA efflux. To discriminate between basolateral and canalicular efflux, cells were incubated in parallel in either standard or Ca2+ and Mg2+-free buffer for 30 minutes after TA uptake before measuring the remaining radiolabeled TA. Canalicular efflux was calculated using this equation: Canalicular efflux: Radioactivity in efflux mediumCa2+ and Mg2+ free buffer—Radioactivity in efflux medium Standard buffer. Differentiated cells were exposed or not to CPZ (50 μM for 2 h) before radiolabelled TA addition.

[5] = test system: differentiated HepaRG cells (canalicular clearance); test: Biliary clearance activity with CDFDA marker compound; conditions: versus control cells
Protocol: The first step was incubation with the marker compound. CDFDA was preferentially used. After washing, differentiated cells plated in wells from 24 well-plates, were washed with HBSS buffer twice and incubated with 250 μl of CDFDA solution prepared at the final concentration of 3 μM in HBSS buffer containing Ca++ buffer (pH 7.4). After 30 min cells were washed with the same buffer. […] Quantification of the fluorescent dye into the medium is performed. A comparative evolution was established between control (untreated) and CPZ- and EF-treated cells. […] Calculation of the amount of released fluorescent dye molecules was performed by spectrometry and the canalicular clearance efficiency (CCE) was determined per time unit.

## O=S(=O)(c1cccc2cnccc12)N1CCCNCC1 [Fasudil]
ZO-1
  distribution of ZO-1 at the biliary pole: appears normal
[1]
  induction of cholestasis (phenotype with swollen lumen): inducing cholestasis
  change of biliary lumen (constriction or swelling): relaxation/swelling
HepaRG cells
  accumulation of labelled taurocholate in cells including canaliculi space: abnormal accumulation of labelled taurocholate
HepaRG cells; listed as fasudil
  accumulation of labelled taurocholate in cells including canaliculi space: highest values

## C=CC[C@@H]1/C=C(\C)C[C@H](C)C[C@H](OC)[C@H]2O[C@@](O)(C(=O)C(=O)N3CCCC[C@H]3C(=O)O[C@H](/C(C)=C/[C@@H]3CC[C@@H](O)[C@H](OC)C3)[C@H](C)[C@@H](O)CC1=O)[C@H](C)C[C@@H]2OC [Fk, Tacrolimus]
Rho-kinase
  Rho-kinase activity: activate the Rho-kinase activity
[1]
  change of bile canaliculus lumen (constriction or swelling): inducing lumen constriction

## CC(=O)/C(C)=N/O [BDM]
[2]
  P-myosin (P-MYL9) level by western blotting: inhibition of P-myosin phosphorylation

## S=C=Nc1cccc2ccccc12 [ANIT]
ZO-1
  distribution of ZO-1 at the biliary pole: appears normal
Rho-kinase
  Rho-kinase activity: activate the Rho-kinase activity
[1]
  change of bile canaliculus lumen (constriction or swelling): inducing lumen constriction
  induction of cholestasis (phenotype with swollen lumen): inducing cholestasis
  change of biliary lumen (constriction or swelling): relaxation/swelling

## Cyclosporin A [CsA]
Rho-kinase
  Rho-kinase activity: activate the Rho-kinase activity
[2]
  P-myosin (P-MYL9) level by western blotting: accumulation of P-myosin
[1]
  change of bile canaliculus lumen (constriction or swelling): inducing lumen constriction
  change of biliary lumen (constriction or swelling): lumen constriction
[1]; listed as cyclosporine A
  change of biliary lumen (constriction or swelling): constriction

## C[C@H](CCC(=O)O)[C@H]1CC[C@H]2[C@@H]3CC[C@@H]4C[C@H](O)CC[C@]4(C)[C@H]3C[C@H](O)[C@]12C [DCA, Deoxycholic acid]
[1]
  induction of cholestasis (phenotype with swollen lumen): inducing cholestasis

## COc1ccccc1Oc1c(NS(=O)(=O)c2ccc(C(C)(C)C)cc2)nc(-c2ncccn2)nc1OCCO [bosentan]
[1]
  change of biliary lumen (constriction or swelling): abnormal and prolonged canalicular lumen swelling

## CN(C)CCCN1c2ccccc2Sc2ccc(Cl)cc21 [CPZ, chlorpromazine]
ZO-1
  distribution of ZO-1 at the biliary pole: appears normal
[3]
  clearance of Rhodamin 123 dye: delay
Rho-kinase
  Rho-kinase activity: dose-dependent activation of Rho-kinase
[4]; CPZ 50 μM
  taurocholate efflux: decrease of taurocholate efflux
[2]; Example 1, 2 h treated HepaRG cells
  myosin-light chain phosphorylation (immunoblotting): accumulation of myosin-light chain phosphorylation
[2]
  P-myosin (P-MYL9) level by western blotting: accumulation of P-myosin
[1]
  change of bile canaliculus lumen (constriction or swelling): Constriction of canaliculus lumen
  change of biliary lumen (constriction or swelling): lumen constriction
[1]; listed as chlorpromazine
  change of bile canaliculus lumen (constriction or swelling): constriction of the canaliculus lumen
  change of biliary lumen (constriction or swelling): abnormal and permanent lumen constriction
[5]
  clearance of CDFDA dye out of the canalicular space: delay in the clearance of dye
[5]; listed as chlorpromazine
  clearance of CDFDA dye out of the canalicular space: delay of clearance

## C[C@@H](N)[C@H]1CC[C@H](C(=O)Nc2ccncc2)CC1 [Y27632]
[3]
  clearance of Rhodamin 123 dye: delay
[4]; in presence of CPZ
  taurocholate efflux with Rho-kinase inhibitor added to CPZ: recovery of taurocholate efflux activity
[2]
  P-myosin (P-MYL9) level by western blotting: inhibition of P-myosin phosphorylation
[1]
  change of bile canaliculus lumen (constriction or swelling): swelling/relaxation
  change of biliary lumen (constriction or swelling): swelling
[5]
  clearance of CDFDA dye out of the canalicular space: delay in biliary clearance
[5]; listed as EF
  clearance of CDFDA dye out of the canalicular space: delay in the clearance of dye
HepaRG cells
  accumulation of labelled taurocholate in cells including canaliculi space: abnormal accumulation of labelled taurocholate
